The source of these data is patent US20080071116A1, “Modulators of Lysophosphatidic Acid (Lpa) Signaling and the Use Thereof” (THE BOARD OF REGENTS OF THE UNIVERSITY OF TEXAS SYSTEM, priority 2004, published 2008).

Test [1] concerns chimera receptor, LPA1/LPA2. The test is described as follows: calcium mobilization in Sf9 cells expressing LPA1/LPA2 chimera receptor. In kind it is cell-based. To be noted: FIG. 58C.
For test [2], the target named is T1, LPA3 receptor (Homo sapiens, UniProt Q9UBY5).
T1 sequence (Q9UBY5 1-353): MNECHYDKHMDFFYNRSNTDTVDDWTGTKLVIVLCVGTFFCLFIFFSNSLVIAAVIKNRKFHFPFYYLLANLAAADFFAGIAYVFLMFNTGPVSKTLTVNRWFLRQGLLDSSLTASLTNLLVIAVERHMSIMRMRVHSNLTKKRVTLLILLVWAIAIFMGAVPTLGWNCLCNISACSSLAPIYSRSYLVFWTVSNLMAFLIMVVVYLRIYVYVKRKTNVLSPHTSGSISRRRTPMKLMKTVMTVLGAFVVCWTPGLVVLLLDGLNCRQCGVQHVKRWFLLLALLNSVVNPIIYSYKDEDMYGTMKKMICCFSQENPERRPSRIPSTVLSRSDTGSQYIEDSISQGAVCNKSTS
The test is described as follows: HA-Erk1 phosphorylation in HEK 293 T cells transfected with LPA3. To be noted: LPA3 transfected HEK 293 T; 0.01, 0.1, or 1 μM. Details: expressed in transfected cells. In kind it is cell-based. From the text:
(§1) We have also tested kinase activation by the LPA3 receptor subtype using OMPT as a tool. We determined whether activation of the LPA3 receptor by OMPT can be linked to ERK activation (related to MAP kinase signaling pathway) in mammalian cells, HEK 293 T cells, by co-transfecting hemagglutinin (HA)-tagged Erk1 (HA-Erk1) with either a control vector or an expression vector having LPA1, LPA2, or LPA3. […] There is no phosphorylation of HA-Erk1 at lower concentration of LPA or OMPT in the absence of LPA receptors. […] Thus, the data confirmed that OMPT, an LPA derivative, is a selective agonist for LPA3 receptor subtype, capable of inducing MAPK activation.

The next test deals with AKT. The test is described as follows: AKT phosphorylation immunoblot in prostate cancer cells. It counts as cell-based, human. To be noted: PC-3 and DU145 cells. On the procedure:
The cells were then lysed in SDA sample buffer or ice-cold X-100 lysis buffer (1% Triton X-100, 50 mM HEPES [pH7.4], 150 mM NaCl, 1.5 mM MgCl2, 1 mM EGTA, 10% glycerol, 100 mM NaF, 10 mM Na pyrophosphate, and 1 mM aprotinin). Total cellular protein was resolved by SDS/PAGE, transferred to immobilon [poly (vinylidene difluoride)], and immunoblotted with antibodies following the protocols provided by manufactures. Immunocomplexes were visualized with an enhanced chemiluminescence detection kit (Amersham Pharmacia) using horseradish peroxidase-conjugated secondary antibodies (Bio-Rad).

Another test deals with HT29 cells. The test is described as follows: calcium mobilization assay in colon cancer HT29 cells. It counts as cell-based. To be noted: HT29 cells. Here is the method: (§2) The procedures for these calcium mobilization assays are as followed: OVCAR3 cells and PC-3 cells were cultured in RPMI 1640 medium with 10% FBS (fetal bovine serum). HT29 cells were cultured in DMEM (high glucose) medium with 10% FBS. All cells were cultured at about 37° C. in a humidified atmosphere with 5% CO2. After starvation in serum-free medium for about 12-24 hours, cells were harvested and loaded with about 1 μM of Indo-1 AM in serum-free medium for about 45 min at 37° C. Cells were washed in PBS and resuspended at 2×10^6 cells/ml in a [Ca^2+]i assay buffer (Sodium chloride, NaCl, about 140 mM, potassium chloride, KCl, about 2 mM, magnesium chloride, MgCl2, about 1 mM, calcium chloride, CaCl2, about 2 mM, in about 25 mM HEPES buffer at pH 7.4 with about 10 mM of glucose). Cytoplasmic [Ca^2+]i was determined at an excitation wavelength of about 331 nm and an emission wavelength of 410 nm using a fluorescence spectrophotometer (Hitachi, F-4000). Approximately 3×10^6 cells were used for [Ca^2+]l determination in a stirred quartz cuvette kept at about 37° C. OMPT or 18:1 LPA was dissolved in about 0.1% BSA/PBS solution and applied immediately to the cells. To test other LPA derivatives of the invention, cells were exposed to the derivatives for about 3 minutes or for a period of various times in time course related experiments before a LPA agonist, such as 18:1 LPA, OMPT, or other LPAs was applied into the cuvette.
(§3) The concentration of calcium mobilization giving the half-maximal response (EC50) was obtained from the concentration-response curve fitted to a sigmoidal logistic equation, with the maximal calcium response set to 100% using the GraphPad Prism. Maximal response value is expressed as mean +/−s.e.m. EC50 value is expressed with 95% confidence.

The test system of another test is PC-3 cells. The test is described as follows: membrane ruffling and cell migration in PC-3 cells. It counts as cell-based, human.
The next test concerns OVCAR3 cells. Kind of test: calcium mobilization assay in ovarian cancer OVCAR3 cells. To be noted: Homo sapiens, OVCAR-3; OVCAR3 cells; 95% confidence about 7.0 to about 11.5 nM. In kind it is cell-based, human. Here is the method: as §2, §3
Test [3] deals with T2, LPA2 receptor (Homo sapiens, UniProt Q9HBW0). The test is described as follows: HA-Erk1 phosphorylation in HEK 293 T cells transfected with LPA2. It counts as cell-based. Details: expressed in transfected cells. To be noted: LPA2 transfected HEK 293 T; 0.01, 0.1, or 1 μM.
T2 sequence (Q9HBW0 whole entry): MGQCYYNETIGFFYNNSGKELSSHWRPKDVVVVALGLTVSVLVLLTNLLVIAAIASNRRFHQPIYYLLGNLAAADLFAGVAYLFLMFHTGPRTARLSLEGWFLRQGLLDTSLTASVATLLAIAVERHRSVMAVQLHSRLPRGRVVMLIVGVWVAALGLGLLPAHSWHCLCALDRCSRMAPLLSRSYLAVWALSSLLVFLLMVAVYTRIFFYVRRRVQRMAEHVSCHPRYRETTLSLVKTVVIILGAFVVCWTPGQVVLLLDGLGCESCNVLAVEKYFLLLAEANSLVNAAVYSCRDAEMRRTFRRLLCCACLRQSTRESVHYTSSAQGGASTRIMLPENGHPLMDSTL
Source text: as §1

Test [4] has as its target T2, LPA2 receptor. The test is described as follows: calcium mobilization in Sf9 insect cells expressing LPA2. In kind it is cell-based. Details: expressed in transfected cells; host or cells: Sf9 insect cells.
Test [5] concerns the target T1, LPA3 receptor. The test is described as follows: calcium mobilization in Sf9 insect cells expressing LPA3. In kind it is cell-based. Details: expressed in transfected cells; host or cells: Sf9 insect cells.

Structures are written as SMILES.

As for `CCCCCCCC/C=C\CCCCCCCC(=O)OCC(COP(O)(O)=S)OC` (racemic) [OMPT, 1-oleoyl-sn2-O-methyl-rac-glycero-3-phosphothionate], the calcium mobilization result in [1] was “did not induce calcium mobilization”; at LPA2 receptor [4] (Sf9 cells expressing LPA2, FIG. 58B), “did not induce calcium mobilization”; on LPA3 receptor [5], “efficiently activates calcium mobilization”. The HA-Erk1 phosphorylation result at LPA3 receptor [2] is recorded as “stimulates Erk1 phosphorylation at all concentrations tested”; on LPA2 receptor [3] it was “did not increase HA-Erk1 phosphorylation”. In the test with AKT, the “activation of AKT” value is recorded as “efficiently activates”. In addition, the “stimulation of calcium mobilization” value with HT29 cells (FIG. 3) is listed as “but not OMPT, stimulates calcium mobilization”. Also, the EC50 was under 1000 nM in the test with HT29 cells (Homo sapiens, HT-29); about 9 nM in the test with OVCAR3 cells; over 10000 nM on LPA2 receptor [4] (Sf9 cells expressing LPA2, read-out: EC50 of increase in intracellular calcium concentration); 69 nM on LPA3 receptor [5] (read-out: EC50 of increase in intracellular calcium concentration). For the same compound, the “stimulation of membrane ruffling and cell migration” value in the test with PC-3 cells is reported as “induces neither morphology changes nor migration”.
